Reference: patent publication US20220315554A1, “COMPOUNDS COMPRISING A […] LIGAND AND USE THEREOF” (priority 2019, published 2022)
Numbered stars: 1 amine (or outer) side, 2 acyl side, 3 side chain; on linkers, the order of the positions; unused ones are H or OH. Bridge positions count the residues as written; N and C are the ends. Square brackets hold non-standard residues; d marks the D form. Peptide text beside a SMILES is read from it. * marks the point of attachment. TBMB(SCH2CH2NH-DOTA) = O=C(O)CN1CCN(CC(=O)O)CCN(CC(=O)NCCSCc2cc(C[*:1])cc(C[*:2])c2)CCN(CC(=O)O)CC1; X11 = O=C(CN1CCN2CCN3CCN(CC1)CC(=O)[O][In]([O]C(=O)C2)[O]C(=O)C3)NCCSCc1cc(CSCCN[*:2])cc(C[*:1])c1; X1 = O=C(O)CN1CCN(CC(=O)O)CCN(CC(=O)N2CCN(Cc3cc(C[*:1])cc(C[*:2])c3)CC2)CCN(CC(=O)O)CC1; X13 = O=C(O)CN1CCN(CC(=O)O)CCN(CC(=O)NCCSCc2cc(CSCCN[*:2])cc(C[*:1])c2)CCN(CC(=O)O)CC1; Phe(2-CF3) = N[C@@H](Cc1ccccc1C(F)(F)F)C(=O)O; Pentanesulfonyl = CCCCCS(=O)(=O)*; Hexanoyl = CCCCCC(=O)*; Sar = CNCC(=O)O

Key:
[1] = molecular target: T1, FAP-expressing human WI-38 fibroblasts (Homo sapiens, UniProt Q12884); assay: Competitive FACS binding assay; conditions: pIC50 Category (FACS), competition with 3 nM Cy5-labeled compound, 4° C., 1 hour
T1 construct: FAP-expressing human WI-38 fibroblasts (ECACC) were cultured in EMEM; host or cells: WI-38 human fibroblasts
T1 sequence (Q12884 1-760): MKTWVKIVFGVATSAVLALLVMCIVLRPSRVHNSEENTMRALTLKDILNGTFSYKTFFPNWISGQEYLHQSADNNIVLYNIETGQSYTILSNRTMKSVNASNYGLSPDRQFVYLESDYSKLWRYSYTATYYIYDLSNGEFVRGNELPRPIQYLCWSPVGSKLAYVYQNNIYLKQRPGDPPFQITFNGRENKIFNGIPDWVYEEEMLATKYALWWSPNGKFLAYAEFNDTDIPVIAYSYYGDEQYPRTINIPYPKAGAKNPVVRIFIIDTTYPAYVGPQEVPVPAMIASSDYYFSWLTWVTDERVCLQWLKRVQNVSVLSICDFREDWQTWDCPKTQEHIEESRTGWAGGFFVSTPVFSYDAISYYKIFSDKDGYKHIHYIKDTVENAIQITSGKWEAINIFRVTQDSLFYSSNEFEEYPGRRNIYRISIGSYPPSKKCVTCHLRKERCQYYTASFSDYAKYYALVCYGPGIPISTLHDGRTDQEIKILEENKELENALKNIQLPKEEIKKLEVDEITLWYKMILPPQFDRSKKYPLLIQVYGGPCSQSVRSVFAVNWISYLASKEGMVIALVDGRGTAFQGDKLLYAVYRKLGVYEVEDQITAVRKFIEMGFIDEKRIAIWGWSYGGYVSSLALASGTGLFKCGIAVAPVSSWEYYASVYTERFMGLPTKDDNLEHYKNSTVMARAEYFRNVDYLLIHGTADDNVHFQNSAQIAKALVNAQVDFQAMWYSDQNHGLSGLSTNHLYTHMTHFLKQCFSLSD
Experimental: Cells were analyzed in an Attune NxT flow cytometer. […]

Human recombinant FAP [2] = molecular target: T2, Human recombinant FAP (Homo sapiens, UniProt Q12884); assay: Surface plasmon resonance (Biacore) assay; assay type: binding
T2 sequence (Q12884 1-760): T1 sequence (Q12884 1-760)

Human recombinant FAP [3] = molecular target: T2, Human recombinant FAP; assay: FRET-based FAP protease activity assay; assay type: biochemical; parameters: purchased R&D systems 3715-SE; conditions: pIC50 Category (Activity), FRET substrate, 37° C.

CCCCCC(=O)N[C@H]1CSCc2cc(CSCCNC(=O)CN3CCN(CC(=O)O)CCN(CC(=O)O)CCN(CC(=O)O)CC3)cc(c2)CSC[C@@H](C(=O)NCCC(=O)O)NC(=O)[C@H](Cc2ccccc2)NC(=O)[C@H](CCC(N)=O)NC(=O)[C@H]([C@@H](C)O)NC(=O)[C@@H]2CCCN2C(=O)[C@@H]2CCCN2C1=O [3BP-3651, Hex-[Cys(tMeBn(DOTA-AET))-Pro-Pro-Thr-Gln-Phe-Cys]-Bal-OH]
< 0.01 µM: IC50 ([1]; WI-38 fibroblasts) | Kd (Human recombinant FAP [2]) | IC50 (Human recombinant FAP [3]; recombinant human FAP)

CCCCCC(=O)N[C@H]1CSCc2cc(CSCCNC(=O)CN3CCN(CC(=O)O)CCN(CC(=O)O)CCN(CC(=O)O)CC3)cc(c2)CSCCNC(=O)[C@H](Cc2ccccc2)NC(=O)[C@H](CCC(N)=O)NC(=O)[C@H]([C@@H](C)O)NC(=O)[C@@H]2CCCN2C(=O)[C@@H]2CCCN2C1=O [3BP-3654, Hex-[Cys(tMeBn(DOTA-AET))-Pro-Pro-Thr-Gln-Phe-AET]] (Hexanoyl-CPPTQF; linker 1-C via X13)
< 0.01 µM: IC50 ([1]; WI-38 fibroblasts) | Kd (Human recombinant FAP [2]) | IC50 (Human recombinant FAP [3]; recombinant human FAP)

CCCCCC(=O)N[C@H]1CSCc2cc(CSCCNC(=O)CN3CCN(CC(=O)O)CCN(CC(=O)O)CCN(CC(=O)O)CC3)cc(c2)CSC[C@@H](C(=O)NCC(=O)O)NC(=O)[C@H](Cc2ccccc2)NC(=O)[C@H](CCC(N)=O)NC(=O)[C@H]([C@@H](C)O)NC(=O)[C@@H]2CCCN2C(=O)[C@@H]2CCCN2C1 [3BP-3656, Hex-[Cys(tMeBn(DOTA-AET))-Pro-Pro-Thr-Gln-Phe-Cys]-Gly-OH]
< 0.01 µM: IC50 ([1]; WI-38 fibroblasts) | Kd (Human recombinant FAP [2]) | IC50 (Human recombinant FAP [3]; recombinant human FAP)

CCCCCC(=O)N[C@H]1CSCc2cc(CSCCNC(=O)CN3CCN(CC(=O)O)CCN(CC(=O)O)CCN(CC(=O)O)CC3)cc(c2)CSC[C@@H](C(=O)NCCCC(=O)O)NC(=O)[C@H](Cc2ccccc2)NC(=O)[C@H](CCC(N)=O)NC(=O)[C@H]([C@@H](C)O)NC(=O)[C@@H]2CCCN2C(=O)[C@@H]2CCCN2C1 [3BP-3657, Hex-[Cys(tMeBn(DOTA-AET))-Pro-Pro-Thr-Gln-Phe-Cys]-Gab-OH]
< 0.01 µM: IC50 ([1]; WI-38 fibroblasts) | Kd (Human recombinant FAP [2]) | IC50 (Human recombinant FAP [3]; recombinant human FAP)

CCCCCC(=O)N[C@H]1CSCc2cc(CSCCNC(=O)CN3CCN(CC(=O)O)CCN(CC(=O)O)CCN(CC(=O)O)CC3)cc(c2)CSC[C@@H](C(=O)N[C@@H](CO)C(=O)O)NC(=O)[C@H](Cc2ccccc2)NC(=O)[C@H](CCC(N)=O)NC(=O)[C@H]([C@@H](C)O)NC(=O)[C@@H]2CCCN2C(=O)[C@@H]2CCCN2C1 [3BP-3658, Hex-[Cys(tMeBn(DOTA-AET))-Pro-Pro-Thr-Gln-Phe-Cys]-Ser-OH]
< 0.01 µM: IC50 [1] | Kd (Human recombinant FAP [2]) | IC50 (Human recombinant FAP [3])

CCCCCC(=O)N[C@H]1CSCc2cc(CSCCNC(=O)CN3CCN(CC(=O)O)CCN(CC(=O)O)CCN(CC(=O)O)CC3)cc(c2)CSC[C@@H](C(=O)N(C)CC(=O)O)NC(=O)[C@H](Cc2ccccc2)NC(=O)[C@H](CCC(N)=O)NC(=O)[C@H]([C@@H](C)O)NC(=O)[C@@H]2CCCN2C(=O)[C@@H]2CCCN2C1 [3BP-3659, Hex-[Cys(tMeBn(DOTA-AET))-Pro-Pro-Thr-Gln-Phe-Cys]-Nmg-OH]
< 0.01 µM: IC50 [1] | Kd (Human recombinant FAP [2]) | IC50 (Human recombinant FAP [3])

CCCCCC(=O)N[C@H]1CSCc2cc(CSCCNC(=O)CN3CCN(CC(=O)O)CCN(CC(=O)O)CCN(CC(=O)O)CC3)cc(c2)CSC[C@@H](C(=O)N[C@H](CC(=O)O)Cc2ccccc2)NC(=O)[C@H](Cc2ccccc2)NC(=O)[C@H](CCC(N)=O)NC(=O)[C@H]([C@@H](C)O)NC(=O)[C@@H]2CCCN2C(=O)[C@@H]2CCCN2C1 [3BP-3660, Hex-[Cys(tMeBn(DOTA-AET))-Pro-Pro-Thr-Gln-Phe-Cys]-Bhf-OH]
< 0.01 µM: IC50 [1] | Kd (Human recombinant FAP [2]) | IC50 (Human recombinant FAP [3])

CCCCCC(=O)N[C@H]1CSCc2cc(CSCCNC(=O)CN3CCN(CC(=O)O)CCN(CC(=O)O)CCN(CC(=O)O)CC3)cc(c2)CSC[C@@H](C(=O)N[C@@H](CC(=O)O)C(=O)O)NC(=O)[C@H](Cc2ccccc2)NC(=O)[C@H](CCC(N)=O)NC(=O)[C@H]([C@@H](C)O)NC(=O)[C@@H]2CCCN2C(=O)[C@@H]2CCCN2C1=O [3BP-3665, Hex-[Cys(tMeBn(DOTA-AET))-Pro-Pro-Thr-Gln-Phe-Cys]-Asp-OH] (Hexanoyl-CPPTQFCD-OH; linker 1-7 via TBMB(SCH2CH2NH-DOTA))
< 0.01 µM: IC50 [1] | Kd (Human recombinant FAP [2]) | IC50 (Human recombinant FAP [3])

CCCCCC(=O)N[C@H]1CSCc2cc(CSCCNC(=O)CN3CCN(CC(=O)O)CCN(CC(=O)O)CCN(CC(=O)O)CC3)cc(c2)CSC[C@@H](C(=O)O)NC(=O)[C@H](Cc2ccccc2)NC(=O)[C@H](CCC(N)=O)NC(=O)[C@H]([C@@H](C)O)NC(=O)[C@@H]2CCCN2C(=O)[C@@H]2CCCN2C1 [3BP-3678, Hex-[Cys(tMeBn(DOTA-AET))-Nmg-Pro-Thr-Gln-Phe-Cys]-OH]
< 0.01 µM: IC50 [1] | Kd (Human recombinant FAP [2]) | IC50 (Human recombinant FAP [3])

CCCCCC(=O)N[C@H]1CSCc2cc(CSCCNC(=O)CN3CCN(CC(=O)O)CCN(CC(=O)O)CCN(CC(=O)O)CC3)cc(c2)CSC[C@@H](C(=O)O)NC(=O)[C@H](Cc2ccccc2)NC(=O)[C@H](CCC(N)=O)NC(=O)[C@H]([C@@H](C)O)NC(=O)[C@@H]2C[C@@H](O)CN2C(=O)[C@@H]2CCCN2C1 [3BP-3679, Hex-[Cys(tMeBn(DOTA-AET))-Pro-Hyp-Thr-Gln-Phe-Cys]-OH]
< 0.01 µM: IC50 [1] | Kd (Human recombinant FAP [2]) | IC50 (Human recombinant FAP [3])

CCCCCC(=O)N[C@H]1CSCc2cc(CSCCNC(=O)CN3CCN(CC(=O)O)CCN(CC(=O)O)CCN(CC(=O)O)CC3)cc(c2)CSC[C@@H](C(=O)O)NC(=O)[C@H](Cc2ccccc2C(F)(F)F)NC(=O)[C@H](CCC(N)=O)NC(=O)[C@H]([C@@H](C)O)NC(=O)[C@@H]2CCCN2C(=O)CN(C)C1=O [3BP-3680, Hex-[Cys(tMeBn(DOTA-AET))-Pro-Pro-Thr-Gln-Otf-Cys]-OH] (Hexanoyl-C[Sar]PTQ[Phe(2-CF3)]C-OH; linker 1-7 via TBMB(SCH2CH2NH-DOTA))
< 0.01 µM: IC50 [1] | Kd (Human recombinant FAP [2]) | IC50 (Human recombinant FAP [3])

CCCCCS(=O)(=O)N[C@H]1CSCc2cc(CSCCNC(=O)CN3CCN(CC(=O)O)CCN(CC(=O)O)CCN(CC(=O)O)CC3)cc(c2)CSC[C@@H](C(=O)O)NC(=O)[C@H](Cc2ccccc2)NC(=O)[C@H](CCC(N)=O)NC(=O)[C@H]([C@@H](C)O)NC(=O)[C@@H]2CCCN2C(=O)[C@@H]2CCCN2C1=O [3BP-3690, Pentyl-SO2-[Cys(tMeBn(DOTA-AET))-Pro-Pro-Thr-Gln-Phe-Cys]-OH]
< 0.01 µM: IC50 [1] | Kd (Human recombinant FAP [2]) | IC50 (Human recombinant FAP [3])

CCCCCS(=O)(=O)N[C@H]1CSCc2cc(cc(CN3CCN(C(=O)CN4CCN(CC(=O)O)CCN(CC(=O)O)CCN(CC(=O)O)CC4)CC3)c2)CSC[C@@H](C(=O)N[C@@H](CC(=O)O)C(=O)O)NC(=O)[C@H](Cc2ccccc2)NC(=O)[C@H](CCC(N)=O)NC(=O)[C@H]([C@@H](C)O)NC(=O)[C@@H]2CCCN2C(=O)[C@@H]2CCCN2C1=O [3BP-3692, Pentyl-SO2-[Cys(tMeBn(DOTA-PP))-Pro-Pro-Thr-Gln-Phe-Cys]-Asp-NH2] (Pentanesulfonyl-CPPTQFCD-OH; linker 1-7 via X1)
< 0.01 µM: IC50 [1] | Kd (Human recombinant FAP [2]) | IC50 (Human recombinant FAP [3])

CCCCCC(=O)N[C@H]1CSCc2cc(CSCCNC(=O)CN3CCN4CCN5CCN(CC3)CC(=O)[O][In]([O]C(=O)C4)[O]C(=O)C5)cc(c2)CSC[C@@H](C(N)=O)NC(=O)[C@H](Cc2ccccc2)NC(=O)[C@H](CCC(N)=O)NC(=O)[C@H]([C@@H](C)O)NC(=O)[C@@H]2CCCN2C(=O)[C@@H]2CCCN2C1=O [3BP-3712, Hex-[Cys(tMeBn(InDOTA-AET))-Pro-Pro-Thr-Gln-Phe-Cys]-NH2]
< 0.01 µM: IC50 [1] | Kd (Human recombinant FAP [2]) | IC50 (Human recombinant FAP [3])

CCCCCC(=O)N[C@H]1CSCc2cc(CSCCNC(=O)CN3CCN4CCN5CCN(CC3)CC(=O)[O][In]([O]C(=O)C4)[O]C(=O)C5)cc(c2)CSCCNC(=O)[C@H](Cc2ccccc2)NC(=O)[C@H](CCC(N)=O)NC(=O)[C@H]([C@@H](C)O)NC(=O)[C@@H]2CCCN2C(=O)[C@@H]2CCCN2C1=O [3BP-3713, Hex-[Cys(tMeBn(InDOTA-AET))-Pro-Pro-Thr-Gln-Phe-AET]] (Hexanoyl-CPPTQF; linker 1-C via X11)
< 0.01 µM: IC50 [1] | Kd (Human recombinant FAP [2]) | IC50 (Human recombinant FAP [3])
